Reference: PMC11655065, “Antimicrobial activity of iron-depriving pyoverdines against human opportunistic pathogens” (eLife, 2024)
Values after ≈ are worked out from the molar mass of the structure shown. Like-named read-outs stand apart in the source and are kept apart here. Square brackets hold non-standard residues; d marks the D form. Side chains are listed from the residue outwards. Peptide text beside a SMILES is read from it. * marks the point of attachment. ξ: configuration not given here. X1 = O=C(O)CCC(=O)NC1=Cc2cc(O)c(O)cc2N2C1=NCCC2C(=O)*; NH(1-OH-2-oxopiperidin-3-yl) = O=C1C(N*)CCCN1O; ξAsp(3ξ-OH) = NC(C(=O)O)C(O)C(=O)O

How the values were obtained:
[1] = cited from earlier work; for iron association constant: ref Bohac et al., 2019, Shapiro and Wencewicz, 2016, Sheldon and Skaar, 2020
K. pneumoniae [2] = experiment: Dose–response growth inhibition in CAA medium; format: cell-based, Klebsiella pneumoniae
Protocol: (§1) Pathogen overnight cultures were grown in either 8 mL tryptic soy broth (TSB; for the two S. aureus strains) or 8 mL lysogeny broth (LB; all other pathogens) in 50 mL tubes at 37°C and 220 rpm agitation. Following two washing steps with 0.8% NaCl, we adjusted the overnight cultures to an optical density at 600 nm (OD600) of 1. For overnights of environmental isolates, we followed the same procedure when working with low sample sizes, with the only difference being that culturing occurred at 28°C. For the large-scale screening experiments, we grew environmental isolates in 200 µL LB in 96-well plates shaken at 170 rpm. Cultures from plates were then directly used for experiments. For all main experiments (screen for bioactive pyoverdines and dose–response curves), we used CAA medium (1% casamino acids, 5 mM K2HPO4 * 3H2O,1 mM MgSO4*7 H2O, 25 mM HEPES buffer). This medium contains low levels of iron, triggering pyoverdine production ([Cunrath et al., 2016]).
(§2) To determine the inhibition potential of crude- and HPLC-purified pyoverdines, as well as ferribactin, we subjected A. baumannii. K. pneumoniae, P. aeruginosa, and S. aureus to serially diluted extracts. For this, the extracts were dissolved in CAA medium, filter sterilized, and diluted in the same medium. Bacterial overnight cultures were grown and prepared as described above and added to a total of 200 µL medium on a 96-well plate with four replicates per extract dilution. […] We incubated the plates at 37°C statically in the plate reader and measured the OD600 every 15 min for 24 hr. Before each measurement, plates were shaken for 15 s. We repeated the experiment up to five times with different initial extract starting concentrations. This was done to ensure that the full dose response to pyoverdine was captured. Thus, sample size per individual extract concentration varied between 4 and 20 replicates. We subtracted the blank values and the background values caused by the treatment of the respective extract concentration from the measured growth data and calculated the integral (area under the growth curve) using the R package Growthcurver ([Sprouffske and Wagner, 2016]). We then expressed growth relative to the control medium, where bacteria grew in CAA without extract or antibiotic addition. Finally, we plotted extract/antibiotic concentration vs. relative growth and fitted dose–response curves (see below).

K. pneumoniae [3] = experiment: Infection model: treatment of infected larvae; format: in vivo, Galleria mellonella
Protocol: (§3) We tested the efficacy of pyoverdine to treat infections in larvae of the host model G. mellonella. All larvae were ordered from a local vendor (Bait Express GmbH, Basel, Switzerland) and stored without food at 16°C in the dark for up to 3 days. In a first step, we determined the mean weight of 336 final instar G. mellonella larvae (mean = 435 mg). For all subsequent experiments, we weighed the larvae and only used individuals with a mean weight ±20% (range: 340–530 mg). Larvae were immobilized on ice for 15 min, surface-sterilized with 70% ethanol, and randomly distributed to individual wells on 24-well plates. Ten larvae were used per infection–treatment combination. To inject bacteria and administer treatments, we used sterile needles (Sterican 26G, 0.45 × 12 mm [Braun]) and syringes (1 mL injekt-F [Braun]) attached to a syringe pump (New Era Pump Systems Inc, model NE-300) set to a flow rate of 5 mL/hr. For both infection and treatment delivery, a volume of 10 µL per larvae was injected between the posterior larval prolegs.
(§4) On the pathogen side, we determined the LD50 (lethal dose, killing 50% of the larvae) for A. baumannii (1.8 * 10^5 CFU/larvae) and K. pneumoniae (8.9 * 10^5 CFU/larvae) (Figure 5—figure supplement 1). For P. aeruginosa, we use 56 CFU/larvae because all doses tested killed 100% of the larvae (Figure 5—figure supplement 1). As negative control, we administered 10 µL/larvae of sterile PBS. Following infections, larvae were individually placed in wells of 24-well plates and incubated at 37°C in the dark for 4 hr.
(§5) On the treatment side, we used pyoverdines 3A06, 3G07, and s3b09 at three concentrations that were non-toxic for the NSC-34 cells. For this, we prepared stocks of 60 mg/mL, 30 mg/mL, and 6 mg/mL of crude pyoverdines. Since the injected treatment volume was 10 µL per larvae, the final pyoverdine concentrations were 0.6 mg, 0.3 mg, and 0.06 mg per larvae, respectively. When scaling theses concentrations to the doses used for the […] dose–response curves (Figure 4), the relative pyoverdine concentrations were 0.1, 0.05, and 0.01. Pyoverdine treatments were administered 4 hr after the infection through injections. Prior to treatment, larvae were immobilized on ice for 15 min. We also applied treatments to larvae infected with sterile PBS to quantify potential negative effects of the treatment in the absence of an infection. Following treatment, larvae were put back to their allocated well of the 24-well plate and kept at 37°C in the dark.
(§6) From the 12th hour post infection (hpi) onward, we regularly checked the survival of all larvae for a total of 48 hpi. Specifically, larvae were poked with a pipette tip and individuals not responding to the physical stimulation were considered dead. […]

A. baumannii [4] = experiment: Infection model: treatment of infected larvae; format: in vivo, Galleria mellonella; details: injected 4 hr post infection
Protocol: as §3, §4, §5, §6

in vitro = format: cell-based; details: sheep
Protocol: To determine the hemolytic activity of pyoverdines, we quantified sheep erythrocyte hemolysis at different pyoverdine concentrations. We first centrifuged 25 mL of fresh sheep blood (Chemie Brunschwig AG, Switzerland) in a 50 mL tube at 1500 × g for 5 min at 4°C. Plasma was then gently aspirated, replaced by PBS, and tubes were gently inverted to mix. This washing procedure was repeated three times. Pyoverdines were diluted in PBS to final relative concentrations of 1, 0.5, 0.25, 0.2, 0.02, and 0.002. PBS and 0.1% Triton X-100 (Sigma-Aldrich) served as negative and positive control, respectively. 100 µL erythrocyte solution was mixed with either 100 µL pyoverdine solution or the controls in a 96-well plate in triplicates. Following an incubation at 37°C and 120 rpm for 1 hr, the plate was centrifuged at 1036 × g for 5 min at 4°C. Subsequently, 100 µL of the supernatant were transferred to a new 96-well plate. Hemoglobin release was measured at 570 nm in the plate reader and the percent hemolysis was calculated relative to the positive control [% hemolysis = (OD570 of sample – negative control)/(positive control – negative control)].

P. aeruginosa PAO1 = experiment: Dose–response growth inhibition in CAA medium; format: cell-based, Pseudomonas aeruginosa; details: HPLC-purified ferribactin, concentration gradient
Protocol: as §1, with “This medium contains low levels of iron, triggering pyoverdine production ([Cunrath et al., 2016]).” left out
(§7) To determine the inhibition potential of crude- and HPLC-purified pyoverdines, as well as ferribactin, we subjected A. baumannii. […] We incubated the plates at 37°C statically in the plate reader and measured the OD600 every 15 min for 24 hr. […] We subtracted the blank values and the background values caused by the treatment of the respective extract concentration from the measured growth data and calculated the integral (area under the growth curve) using the R package Growthcurver ([Sprouffske and Wagner, 2016]). […]

S. aureus JE2 = experiment: Dose–response growth inhibition in CAA medium; format: cell-based, Staphylococcus aureus
Protocol: as §1, with “This medium contains low levels of iron, triggering pyoverdine production ([Cunrath et al., 2016]).” left out
as §7

A. baumannii [5] = experiment: Dose–response growth inhibition in CAA medium; format: cell-based, Acinetobacter baumannii; details: for inhibition of A. baumannii with iron supplementation: crude pyoverdine
Protocol: as §1, §2

A. baumannii [6] = test system: A. baumannii; set-up: method as in Visca et al., 2013; de Léséleuc et al., 2012; details: ref Visca et al., 2013; de Léséleuc et al., 2012; cited from earlier work
P. aeruginosa = details: 2012, 2013, cited from earlier work
[7] = HPLC-purified ferribactin, concentration gradient

O=C(N[C@H]1COC(=O)[C@@H](NC(=O)c2cccc(O)c2O)COC(=O)[C@@H](NC(=O)c2cccc(O)c2O)COC1=O)c1cccc(O)c1O [enterobactin]
iron affinity ([1]; ref Harris et al., 1979): 10^52 M^–1

CC(O)C(NC(=O)C(CO)NC(=O)C(NC(=O)C(N)CCCCNC(=O)C(CC(=O)O)NC(=O)C1CCN=C2C(NC(=O)CCC(=O)O)=Cc3cc(O)c(O)cc3N21)C(O)C(=O)O)C(=O)NC(CO)C(=O)NC(CCCCN)C(=O)NC1CCCN(O)C1=O (stereo not shown) [pyoverdine 3A06] (H-K([Asp-X1])[ξAsp(3ξ-OH)]STSK-{NH(1-OH-2-oxopiperidin-3-yl)}; configuration not given here)
growth reduction (model fit) (K. pneumoniae [2]; crude-purified pyoverdine): 9–12%
reduction of the risk of death (hazard) vs untreated infection (K. pneumoniae [3]; relative concentration 0.01, injected 4 hr post infection, 48 hr, Cox regression): 51.5%
reduction of the risk of death (hazard) vs untreated infection (A. baumannii [4]; relative concentration 0.05, 48 hr, Cox regression): 57.9%
hemolysis at 1 h, 1 relative concentration (in vitro): 2.01%

pyoverdine
iron affinity (Ka, association constant) ([1]; ref Meyer and Abdallah, 1978): 10^32 M^–1

ferribactin [reference compound]
growth inhibition (P. aeruginosa PAO1): no growth inhibition
growth inhibition (S. aureus JE2; [7]): no growth inhibition
growth inhibition (A. baumannii [5]; HPLC-purified ferribactin, concentration gradient, CAA medium): no growth inhibition
growth inhibition (K. pneumoniae [2]; [7]): no growth inhibition

CC(NC(=O)C(NC(=O)C(CO)NC(=O)C(NC(=O)C(N)CCCCNC(=O)C(CC(=O)O)NC(=O)C1CCN=C2C(NC(=O)CCC(=O)O)=Cc3cc(O)c(O)cc3N21)C(O)C(=O)O)C(C)O)C(=O)NC(C(=O)NC(CCCCN)C(=O)NC1CCCN(O)C1=O)C(C)O (stereo not shown) [pyoverdine s3b09] (H-K([Asp-X1])[ξAsp(3ξ-OH)]STATK-{NH(1-OH-2-oxopiperidin-3-yl)}; configuration not given here)
IC50 (S. aureus JE2; Staphylococcus aureus, JE2, HPLC-purified pyoverdine, growth relative to untreated control): 12.2 µg/mL (≈ 9.01 µM)
IC50 (A. baumannii [5]; Acinetobacter baumannii, HPLC-purified pyoverdine, CAA medium, growth relative to untreated control): 5.04 µg/mL (≈ 3.73 µM)
inhibition of A. baumannii with iron supplementation (A. baumannii [5]; CAA medium + 40 µM FeCl3): greatly reduced
inhibition of A. baumannii with iron supplementation (A. baumannii [5]; CAA medium + 200 µM FeCl3): completely stalled
growth reduction (model fit) (K. pneumoniae [2]; HPLC-purified pyoverdine): 9–12%
growth reduction (model fit) (K. pneumoniae [2]; crude-purified pyoverdine): 9–12%
relationship between pyoverdine concentration and time-to-death (K. pneumoniae [3]; relative concentrations 0-0.1, quadratic term significant): hump-shaped
reduction of the risk of death, significance (A. baumannii [4]; same tendency observed, z = –1.496, p=0.135): not significant
hemolysis at 1 h, 1 relative concentration (in vitro): 5.92%

Cc1c(O)c(=O)ccn1C [deferiprone]
growth suppression at sub-MIC levels (A. baumannii [6]): only partially suppressed the growth
minimum inhibitory concentration (MIC) relative to plasma levels in human therapy (P. aeruginosa; ref Thompson et al., Visca et al.): up to 36.7 times
growth suppression at sub-MIC levels (P. aeruginosa; ref Visca et al., de Léséleuc et al.): only partially suppressed the growth

acinetobactin
iron association constant [1]: 10^26 M^–1

fimsbactin
iron association constant [1]: 10^27 M^–1

CC(=O)N(O)CCCCCNC(=O)CCC(=O)N(O)CCCCCNC(=O)CCC(=O)N(O)CCCCCN [desferoxamine]
iron affinity ([1]; ref Elalfy et al., 2023): 10^27 M^–1
